# What was measured:
# [1] = Cytotoxicity against human COLO205 cells assessed as growth inhibition at 10 uM after 48 hrs by SRB assay; type: functional; settings: COLO 205, 48 h, read-out: GI
# [2] = tested on: ACHN; assay: Cytotoxicity against human ACHN cells assessed as growth inhibition at 10 uM after 48 hrs by SRB assay; type: functional; settings: read-out: GI
# [3] = tested on: NCI-H322M; assay: Cytotoxicity against human NCI-H322M cells assessed as growth inhibition at 10 uM after 48 hrs by SRB assay; type: functional; settings: read-out: GI
# [4] = tested on: HT-29; assay: Cytotoxicity against human HT-29 cells assessed as growth level at 10 uM after 48 hrs by SRB assay; type: functional
# [5] = tested on: SK-MEL-28; assay: Cytotoxicity against human SK-MEL-28 cells assessed as growth level at 10 uM after 48 hrs by SRB assay; type: functional
# [6] = Cytotoxicity against human Caki1 cells assessed as growth inhibition at 10 uM after 48 hrs by SRB assay; type: functional; settings: CAKI-1, 48 h, read-out: GI
# [7] = tested on: CCRF-CEM; assay: Cytotoxicity against human CCRF-CEM cells assessed as growth inhibition at 10 uM after 48 hrs by SRB assay; type: functional; settings: read-out: GI
# [8] = Cytotoxicity against human HOP92 cells assessed as growth level at 10 uM after 48 hrs by SRB assay; type: functional, HOP-92
# [9] = Cytotoxicity against human PC3 cells assessed as growth inhibition at 10 uM after 48 hrs by SRB assay; type: functional; settings: PC-3, 48 h, read-out: GI
# [10] = Cytotoxicity against human BT549 cells assessed as growth level at 10 uM after 48 hrs by SRB assay; type: functional, BT-549
# [11] = tested on: SK-MEL-5; assay: Cytotoxicity against human SK-MEL-5 cells assessed as growth inhibition at 10 uM after 48 hrs by SRB assay; type: functional; settings: SK-MEL-5, 48 h, read-out: GI
# [12] = Cytotoxicity against human OVCAR5 cells assessed as growth level at 10 uM after 48 hrs by SRB assay; type: functional, OVCAR-5
# [13] = Cytotoxicity against human SF539 cells assessed as growth inhibition at 10 uM after 48 hrs by SRB assay; type: functional; settings: SF-539, 48 h, read-out: GI
# [14] = tested on: K562; assay: Cytotoxicity against human K562 cells assessed as growth level at 10 uM after 48 hrs by SRB assay; type: functional
# [15] = tested on: KM12; assay: Cytotoxicity against human KM12 cells assessed as growth level at 10 uM after 48 hrs by SRB assay; type: functional
# [16] = tested on: SK-MEL-28; assay: Cytotoxicity against human SK-MEL-28 cells assessed as growth inhibition at 10 uM after 48 hrs by SRB assay; type: functional; settings: SK-MEL-28, 48 h, read-out: GI
# [17] = tested on: EKVX; assay: Cytotoxicity against human EKVX cells assessed as growth level at 10 uM after 48 hrs by SRB assay; type: functional
# [18] = tested on: T47D; assay: Cytotoxicity against human T47D cells assessed as growth inhibition at 10 uM after 48 hrs by SRB assay; type: functional; settings: read-out: GI
# [19] = Cytotoxicity against human OVCAR8 cells assessed as growth level at 10 uM after 48 hrs by SRB assay; type: functional, OVCAR-8
# [20] = Cytotoxicity against human SF268 cells assessed as growth inhibition at 10 uM after 48 hrs by SRB assay; type: functional; settings: SF-268, 48 h, read-out: GI
# [21] = Cytotoxicity against human OVCAR3 cells assessed as growth inhibition at 10 uM after 48 hrs by SRB assay; type: functional; settings: OVCAR-3, 48 h, read-out: GI
# [22] = Cytotoxicity against human OVCAR4 cells assessed as growth inhibition at 10 uM after 48 hrs by SRB assay; type: functional; settings: OVCAR-4, 48 h, read-out: GI
# [23] = Cytotoxicity against human COLO205 cells assessed as growth level at 10 uM after 48 hrs by SRB assay; type: functional, COLO 205
# [24] = Cytotoxicity against human RXF393 cells assessed as growth inhibition at 10 uM after 48 hrs by SRB assay; type: functional; settings: RXF 393, 48 h, read-out: GI
# [25] = Cytotoxicity against human TK10 cells assessed as growth inhibition at 10 uM after 48 hrs by SRB assay; type: functional; settings: TK-10, 48 h, read-out: GI
# [26] = tested on: M14; assay: Cytotoxicity against human M14 cells assessed as growth inhibition at 10 uM after 48 hrs by SRB assay; type: functional; settings: M14, 48 h, read-out: GI
# [27] = tested on: T47D; assay: Cytotoxicity against human T47D cells assessed as growth level at 10 uM after 48 hrs by SRB assay; type: functional
# [28] = tested on: M14; assay: Cytotoxicity against human M14 cells assessed as growth level at 10 uM after 48 hrs by SRB assay; type: functional
# [29] = Cytotoxicity against human HL-60(TB) cells assessed as growth inhibition at 10 uM after 48 hrs by SRB assay; type: functional; settings: HL-60, 48 h, read-out: GI
# [30] = Cytotoxicity against human RPMI8226 cells assessed as growth level at 10 uM after 48 hrs by SRB assay; type: functional, RPMI-8226
# [31] = Cytotoxicity against human HCT116 cells assessed as growth inhibition at 10 uM after 48 hrs by SRB assay; type: functional; settings: HCT-116, 48 h, read-out: GI
# [32] = tested on: A498; assay: Cytotoxicity against human A498 cells assessed as growth inhibition at 10 uM after 48 hrs by SRB assay; type: functional; settings: A498, 48 h, read-out: GI
# [33] = tested on: MDA-MB-231; assay: Cytotoxicity against human MDA-MB-231 cells assessed as growth level at 10 uM after 48 hrs by SRB assay; type: functional
# [34] = Cytotoxicity against human HCC2998 cells assessed as growth level at 10 uM after 48 hrs by SRB assay; type: functional, HCC 2998
# [35] = Cytotoxicity against human SNB75 cells assessed as growth inhibition at 10 uM after 48 hrs by SRB assay; type: functional; settings: SNB-75, 48 h, read-out: GI
# [36] = Cytotoxicity against human SKOV3 cells assessed as growth level at 10 uM after 48 hrs by SRB assay; type: functional, SK-OV-3
# [37] = Cytotoxicity against human Caki1 cells assessed as growth level at 10 uM after 48 hrs by SRB assay; type: functional, CAKI-1
# [38] = Cytotoxicity against human NCI-ADR-RES cells assessed as growth level at 10 uM after 48 hrs by SRB assay; type: functional
# [39] = Cytotoxicity against human TK10 cells assessed as growth level at 10 uM after 48 hrs by SRB assay; type: functional, TK-10
# [40] = Cytotoxicity against human BT549 cells assessed as growth inhibition at 10 uM after 48 hrs by SRB assay; type: functional; settings: BT-549, 48 h, read-out: GI
# [41] = Cytotoxicity against human HCT15 cells assessed as growth inhibition at 10 uM after 48 hrs by SRB assay; type: functional; settings: HCT-15, 48 h, read-out: GI
# [42] = tested on: NCI-H460; assay: Cytotoxicity against human NCI-H460 cells assessed as growth inhibition at 10 uM after 48 hrs by SRB assay; type: functional; settings: NCI-H460, 48 h, read-out: GI
# [43] = tested on: A498; assay: Cytotoxicity against human A498 cells assessed as growth level at 10 uM after 48 hrs by SRB assay; type: functional
structure (smiles),measurement,setting,value
C=C1CC[C@@H]2[C@](C)(COC(C)=O)[C@H](OC(C)=O)CC[C@@]2(C)[C@@H]1CC(NCc1ccc(F)cc1)C1=CCOC1=O (mixture of isomers),inhibition of growth at 10 µM,[1],57.9%
same,inhibition of growth at 10 µM,[2],49.1%
same,inhibition of growth at 10 µM,[3],27.5%
same,Activity,[4],21.32%
same,Activity,[5],77.79%
same,inhibition of growth at 10 µM,[6],54%
same,inhibition of growth at 10 µM,[7],90.8%
same,Activity,[8],18.82%
same,inhibition of growth at 10 µM,[9],79.2%
same,Activity,[10],28.73%
same,inhibition of growth at 10 µM,[11],88.2%
same,Activity,[12],99%
same,inhibition of growth at 10 µM,[13],35.5%
same,Activity,[14],18.84%
same,Activity,[15],46.48%
same,inhibition of growth at 10 µM,[16],22.2%
same,Activity,[17],50.01%
same,inhibition of growth at 10 µM,[18],73.4%
same,Activity,[19],18.62%
same,inhibition of growth at 10 µM,[20],37.4%
same,inhibition of growth at 10 µM,[21],76.3%
same,inhibition of growth at 10 µM,[22],69.1%
same,Activity,[23],42.15%
same,inhibition of growth at 10 µM,[24],19.4%
same,inhibition of growth at 10 µM,[25],33.4%
same,inhibition of growth at 10 µM,[26],62.7%
same,Activity,[27],26.6%
same,Activity,[28],37.3%
same,inhibition of growth at 10 µM,[29],9.52%
same,Activity,[30],1.27%
same,inhibition of growth at 10 µM,[31],66.3%
same,inhibition of growth at 10 µM,[32],48.3%
same,Activity,[33],60.86%
same,Activity,[34],89.3%
same,inhibition of growth at 10 µM,[35],41.9%
same,Activity,[36],94.32%
same,Activity,[37],45.98%
same,Activity,[38],28.29%
same,Activity,[39],66.64%
same,inhibition of growth at 10 µM,[40],71.3%
same,inhibition of growth at 10 µM,[41],63%
same,inhibition of growth at 10 µM,[42],44.8%
same,Activity,[43],51.71%

# Source: ChEMBL document CHEMBL3734705, “Synthesis and in vitro cytotoxicity of novel C-12 substituted-14-deoxy-andrographolide derivatives as potent anti-cancer agents” (2015)
